Values quoted from earlier work as cited in patent US20020034548A1, “STABILIZED ASCORBIC COMPOSITION” (priority 1998, published 2002).

Tests used:
[1] = pH 5.0
[2] = 5% ascorbic acid solution

- redox potential [1]: +0.127 V
- ascorbic acid deprotonated (2% aqueous solution at 25° C.): About 2.4%
- pK1 (aqueous solution, room temperature): 4.17
- time to completely decay into oxidized form [2]: a few days
Compound: O=C1O[C@H]([C@@H](O)CO)C(O)=C1O [L-ascorbic acid]
